As usually defined, the EC50 is the concentration needed to bring the measured effect to its halfway point.

One experiment concerns human Pan T cells. Kind of experiment: Human Pan T cell IL-2 ELISA. As to conditions: Anti-CD3 and Anti-CD28, 48 hours, supernatant IL-2 ELISA, read-out: IL-2 release, EC50. It is filed as cell-based. As for the experimental part: A compound was dissolved in DMSO to 10 mM, and then diluted three-fold with DMSO to 9 dosages in a 96-well plate. Then, 10 µL of the diluted compound sample was transferred to a 96-well plate with 90 µL of cell culture medium, and the plate was shaken for 5 minutes. Then, 5 µL of the diluted compound sample was transferred to a 96-well plate with 120 µL of cell culture medium, and the plate was shaken for 5 minutes. According to the experimental design diagram, 50 µL of the diluted compound sample was transferred to a cell plate. Final concentrations of the compound in this assay were 10000.00, 5000, 2500, 1250, 625, 312.5, 156.25, 78.125 and 39.063 nM.
The assay was conducted in a 96-well plate. On the first day of the assay, Anti-CD3 was added to the 96-well plate and incubated in a 4 °C refrigerator overnight. On the second day of the assay, human Pan T cells were recovered, centrifuged and counted. The cell density was adjusted to 1*10^6 cells/ml. Then, 100 µL of cells were added to the 96-well plate washed with PBS and added with Anti-CD3; according to the experimental design diagram, 50 µL of diluted Anti-CD28 and 50 µL of the diluted compound were added to each well, centrifuged, and the cell plate was placed and incubated in an incubator for 48 hours; after 48 hours, the plate was centrifuged and the supernatant was collected for IL-2 ELISA.
The signal value of light absorption was converted into a multiple. Multiple = sample value/the average value of control wells. The average value of control wells refers to the value measured in wells with DMSO added. EC50 values were calculated by XLFit (version 5.3.1.3) in Excel. Equation: Y=Bottom + (Top-Bottom) / (1 + (EC50/X) ^ HillSlope). Table 6. Results of cellular activity of the compounds
(In general: ELISA stands for enzyme-linked immunosorbent assay.)
In the case of `COC1CCCn2c(-c3cc4c(c5c3CNC5=O)Nc3ccc(N5CCOCC5C)cc3C4(C)C)cnc21` (single isomer, unassigned) [Example 180], the EC50 is 27 nM. For `COC1CCCn2c(-c3cc4c(c5c3CNC5=O)Nc3ccc(N5CCOCC5C)cc3C4(C)C)cnc21` (single isomer, unassigned) [Example 181], the EC50 is 26 nM.

As to `Cn1c(-c2cc3c(c4c2CNC4=O)Nc2ccc(N4CCOCC4)cc2C3(C)C)cnc1C1CCCO1` (single isomer, unassigned) [Example 191], the EC50 amounted to 28 nM. For the molecule `COC1CCc2c(-c3cc4c(c5c3CNC5=O)Nc3ccc(N5CCOCC5)cc3C4(C)C)cncc21` (single isomer, unassigned) [Example 202], the EC50 was found to be 8.7 nM. For `COC1CCc2c(-c3cc4c(c5c3CNC5=O)Nc3ccc(N5CCOCC5)cc3C4(C)C)cncc21` (single isomer, unassigned) [Example 203], the EC50 came to 95 nM.

Staying with this experiment, now noted: Homo sapiens, T-cell, 48 h, Anti-CD3 and Anti-CD28, supernatant IL-2 ELISA, read-out: IL-2 release, EC50.
Take `COC1CCCn2c(-c3cc4c(c5c3CNC5=O)Nc3ccc(N5CCOCC5)cc3C4(C)C)nnc21` (racemic) [Example 120]: the half-maximal effective concentration (EC50) was determined as 66.7 nM.

For the molecule `COC1CCCn2c(-c3cc4c(c5c3CNC5=O)Nc3ccc(N5CCOCC5)nc3C4(C)C)cnc21` (single isomer, unassigned) [Example 25], the EC50 was 33.4 nM. For the molecule `CC1(C)c2cc(N3CCOC(C(C)(C)O)C3)ccc2Nc2c1cc(-c1cnc3cc(F)ccn13)c1c2C(=O)NC1` (single isomer, unassigned) [Example 93], the EC50 came to 6.33 nM. Take `Cc1ccc2c(-c3cc4c(c5c3CNC5=O)Nc3ccc(N5CCOC(C(C)(C)O)C5)cc3C4(C)C)cnn2c1` (single isomer, unassigned) [Example 95]: the half-maximal effective concentration (EC50) turned out to be 7.82 nM.

In the case of `Cc1ccn2c(-c3cc4c(c5c3CNC5=O)Nc3ccc(N5CCOC(C(C)(C)O)C5)cc3C4(C)C)cnc2c1` (single isomer, unassigned) [Example 106], the EC50 came out at 18.3 nM. Still for that read-out and setting: the figure for `CC1(C)c2cc(N3CCOC(C(C)(C)O)C3)ccc2Nc2c1cc(-c1cnc3cc(Cl)ccn13)c1c2C(=O)NC1` (single isomer, unassigned) [Example 125] is 7.23 nM; for `COc1c(F)ccn2c(-c3cc4c(c5c3CNC5=O)Nc3ccc(N5CCOC(C(C)(C)O)C5)cc3C4(C)C)cnc12` (single isomer, unassigned) [Example 127] it is 12.4 nM.

`CC1(C)c2cc(N3CCOC(C(C)(C)O)C3)ccc2Nc2c1cc(-c1cnc3cc(C(F)F)ccn13)c1c2C(=O)NC1` (single isomer, unassigned) [Example 129]: the half-maximal effective concentration (EC50) is 18.2 nM. For `COC1CCCn2c(-c3cc4c(c5c3CNC5=O)Nc3ccc(N5CCOC(C(C)(C)O)C5)cc3C4(C)C)cnc21` (single isomer, unassigned) [Example 132], the EC50 came to 10.1 nM. The same measure, in the same setting: to `CC1(C)c2cc(N3CCOC(C(C)(C)O)C3)ccc2Nc2c1cc(-c1cnc3cc(C#N)ccn13)c1c2C(=O)NC1` (single isomer, unassigned) [Example 133] belongs 22.1 nM; to `CCc1ncc(-c2cc3c(c4c2CNC4=O)Nc2ccc(N4CCOC(C(C)(C)O)C4)cc2C3(C)C)n1C` (single isomer, unassigned) [Example 134], 19.5 nM; to `CCOC1CCCn2c(-c3cc4c(c5c3CNC5=O)Nc3ccc(N5CCOCC5)cc3C4(C)C)cnc21` (single isomer, unassigned) [Example 136], 24.5 nM. As for `COC1CCCn2c(-c3cc4c(c5c3CNC5=O)Nc3ccc(N5CC(C)OC(C)C5)cc3C4(C)C)cnc21` (single isomer, unassigned) [Example 140], the 50% effective concentration (EC50) was 35.8 nM.

On to `Cn1c(-c2cc3c(c4c2CNC4=O)Nc2ccc(N4CCOC(C(C)(C)O)C4)cc2C3(C)C)cnc1C1CCOCC1` (single isomer, unassigned) [Example 141], for which the EC50 amounted to 87.3 nM.

`COC1CCn2c(-c3cc4c(c5c3CNC5=O)Nc3ccc(N5CCOC(C(C)(C)O)C5)cc3C4(C)C)cnc2C1` (single isomer, unassigned) [Example 142]: the EC50 turned out to be 25.1 nM. On the same count and under the same terms, the figure for `Cn1c(-c2cc3c(c4c2CNC4=O)Nc2ccc(N4CCOC(C(C)(C)O)C4)cc2C3(C)C)cnc1C1CCNC1` (single isomer, unassigned) [Example 143] is 592 nM; for `COC1CCCn2c(-c3cc4c(c5c3CNC5=O)Nc3cc(C5CCOCC5)ccc3C4(C)C)cnc21` (single isomer, unassigned) [Example 144] it is 134 nM. For the molecule `CC1(C)c2cc(N3CCOC(C(C)(C)O)C3)ccc2Nc2c1cc(-c1cnn3cc(C#N)ccc13)c1c2C(=O)NC1` (single isomer, unassigned) [Example 145], the EC50 turned out to be 6.5 nM. On to `Cn1ncc2c(-c3cc4c(c5c3CNC5=O)Nc3ccc(N5CCOC(C(C)(C)O)C5)cc3C4(C)C)cncc21` (single isomer, unassigned) [Example 146], for which the EC50 came to 5.7 nM. `Cn1c(-c2cc3c(c4c2CNC4=O)Nc2ccc(N4CCOC(C(C)(C)O)C4)cc2C3(C)C)cnc1C1CCOC1` (single isomer, unassigned) [Example 147]: the EC50 was 42.7 nM.

Turning to `Cc1c(-c2cc3c(c4c2CNC4=O)Nc2ccc(N4CCOC(C(C)(C)O)C4)cc2C3(C)C)cnn1C1CC1` (single isomer, unassigned) [Example 148], the EC50 came to 21.8 nM.

Regarding `COC1CCCn2c(-c3cc4c(c5c3CNC5=O)Nc3cc(C)c(N5CCOCC5)cc3C4(C)C)cnc21` (single isomer, unassigned) [Example 150], the concentration giving a half-maximal response (EC50) was determined as 30.6 nM. In the case of `CCOc1ccc2c(-c3cc4c(c5c3CNC5=O)Nc3ccc(N5CCOC(C(C)(C)O)C5)cc3C4(C)C)cnn2c1` (single isomer, unassigned) [Example 151], the EC50 turned out to be 68.8 nM. Regarding `COC1CCCn2c(-c3cc4c(c5c3CNC5=O)Nc3ccc(N5C6CCC5COC6)cc3C4(C)C)cnc21` (single isomer, unassigned) [Example 152], the 50% effective concentration (EC50) is 34.6 nM. As to `Cn1c(-c2cc3c(c4c2CNC4=O)Nc2ccc(N4CCOC(C(C)(C)O)C4)cc2C3(C)C)cnc1OC1CCOC1` (single isomer, unassigned) [Example 153], the EC50 was found to be 46.8 nM.

For the molecule `CC1(C)c2cc(N3CCOC(C(C)(C)O)C3)ccc2Nc2c1cc(-c1cnn3cc(Cl)ccc13)c1c2C(=O)NC1` (single isomer, unassigned) [Example 154], the EC50 was determined as 7.35 nM. Consider `COC1CCCn2c(-c3cc4c(c5c3CNC5=O)Nc3ccc(N5CCOCC5C)cc3C4(C)C)cnc21` (single isomer, unassigned) [Example 155], for which the EC50 was found to be 26.6 nM. Still for that read-out and setting: the figure for `COc1ccc2c(-c3cc4c(c5c3CNC5=O)Nc3ccc(N5CCOC(C(C)(C)O)C5)cc3C4(C)C)cnn2c1` (single isomer, unassigned) [Example 157] is 6.47 nM; for `COC1CCCn2c(-c3cc4c(c5c3CNC5=O)Nc3ccc(N5CCCOCC5)cc3C4(C)C)cnc21` (single isomer, unassigned) [Example 158] it is 37.6 nM; for `CCC1(C)c2cc(N3CCOCC3)ccc2Nc2c1cc(-c1cnc3n1CCCC3OC)c1c2C(=O)NC1` (single isomer, unassigned) [Example 159] it is 23.6 nM.

Turning to `Cc1ccn2c(-c3cc4c(c5c3CNC5=O)Nc3ccc(N5CCOC(C(C)(C)O)C5)cc3C4(C)C)cnc2n1` (single isomer, unassigned) [Example 162], the concentration giving a half-maximal response (EC50) was 6.33 nM. For the molecule `COC1CCCn2c(-c3cc4c(c5c3CNC5=O)Nc3ccc(C5CCOCC5)cc3C4(C)C)cnc21` (single isomer, unassigned) [Example 163], the concentration for a half-maximal effect (EC50) worked out at 25 nM.

As to `COC1CCCn2c(-c3cc4c(c5c3CNC5=O)Nc3cc(C#N)c(N5CCOCC5)cc3C4(C)C)cnc21` (single isomer, unassigned) [Example 175], the EC50 turned out to be 14 nM. For the molecule `COC1CCCc2c(-c3cc4c(c5c3CNC5=O)Nc3ccc(N5CCOCC5)cc3C4(C)C)cnn21` (single isomer, unassigned) [Example 177], the EC50 is 25 nM.

With `COC1CCCn2c(-c3cc4c(c5c3CNC5=O)Nc3c(F)cc(N5CCOCC5)cc3C4(C)C)cnc21` (single isomer, unassigned) [Example 178], the 50% effective concentration (EC50) was determined as 19 nM. As for `COc1cc2c(cc1N1CCOCC1)C(C)(C)c1cc(-c3cnc4n3CCCC4OC)c3c(c1N2)C(=O)NC3` (single isomer, unassigned) [Example 182], the EC50 worked out at 20 nM. As to `CC1(C)c2cc(N3CCOCC3)ccc2Nc2c1cc(-c1cnc3n1CCCC3OC1CC1)c1c2C(=O)NC1` (single isomer, unassigned) [Example 187], the EC50 came out at 15 nM. For `Cn1c(-c2cc3c(c4c2CNC4=O)Nc2ccc(N4CCOCC4)cc2C3(C)C)cnc1C1CCCO1` (single isomer, unassigned) [Example 190], the EC50 amounted to 53 nM.

With `CCC1(C)c2cc(N3CCOCC3)ccc2Nc2c1cc(-c1cnc3c(OC)nccn13)c1c2C(=O)NC1` (single isomer, unassigned) [Example 212], the EC50 was determined as 11 nM.
